Data published in ChEMBL document CHEMBL1201862, “PubChem BioAssay data set” (2004).
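Protocol summary: plate cells (96-well), add compound at 5 concentrations, incubate 48 h, interpolate endpoints linearly. Here, GI50 denotes the concentration required for 50% inhibition of growth.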 Activity calls are given as the source filed them. No stated cut-off is given here; in the data, active = GI50 up to about 1.1 µM and inactive = higher.

Assays:
Assay in all cases: growth of human tumour cells (NCI), 48 h
[1] = tested on: A549
[2] = tested on: ACHN
[3] = tested on: CAKI-1
[4] = tested on: CCRF-CEM
[5] = tested on: HCT-116
[6] = tested on: HL-60
[7] = tested on: HOP-92
[8] = tested on: IGROV-1
[9] = tested on: KM-20L2
[10] = tested on: MOLT-4
[11] = tested on: NCI-H460
[12] = tested on: OVCAR-5
[13] = tested on: SF-539
[14] = tested on: SK-MEL-28
[15] = tested on: SK-MEL-2
[16] = tested on: SNB-19
[17] = tested on: UO-31
[18] = tested on: DLD-1
[19] = tested on: RXF 393
[20] = tested on: MDA-N

Measured: GI50

N#Cc1ccc(C(C2C(=O)NC(=O)NC2=O)C2C(=O)NC(=O)NC2=O)cc1
inactive: [1] > 100 µM | [2] > 100 µM | [3] > 100 µM | [4] > 100 µM | [5] > 100 µM | [6] > 100 µM | [7] > 100 µM | [8] > 100 µM | [9] > 100 µM | [10] > 100 µM | [11] > 100 µM | [12] > 100 µM | [13] > 100 µM | [14] > 100 µM | [15] > 100 µM | [16] > 100 µM | [17] > 100 µM

CC(C)(C)C1=Cc2cc3cc(C(C)(C)C)[nH]c(=O)c3cc2S(=O)(=O)N1
inactive: [1] 23.2 µM | [2] 30.3 µM | [3] 12.2 µM | [4] 26.6 µM | [18] 31.7 µM | [5] 20.5 µM | [6] 21.2 µM | [7] 16.7 µM | [10] 28.1 µM | [11] 37 µM | [12] 33.7 µM | [14] 31.3 µM | [15] 18.7 µM | [16] 36.4 µM | [17] 17.1 µM

COC(=O)/C(=N\Nc1nnc(C)n1N)C(C#N)c1ccc(Cl)cc1 (stereo not given)
inactive: [1] > 100 µM | [2] > 100 µM | [3] > 100 µM | [18] > 100 µM | [5] > 100 µM | [7] > 100 µM | [8] > 100 µM | [9] > 100 µM | [11] > 100 µM | [12] > 100 µM | [19] > 100 µM | [13] > 100 µM | [14] > 100 µM | [15] > 100 µM | [16] > 100 µM | [17] > 100 µM

C=CCN(N=O)C(=O)N(CCCCC(NC(C)=O)C(=O)NCc1ccccc1)Cc1ccccc1 (stereo not given)
inactive: [1] 38.5 µM | [2] 42.9 µM | [3] 28.6 µM | [4] 28.2 µM | [6] 19.8 µM | [7] 13.1 µM | [8] > 100 µM | [9] 18.9 µM | [10] 13.8 µM | [11] 39.2 µM | [12] > 100 µM | [19] 21.7 µM | [13] 38.1 µM | [14] 44.1 µM | [15] 37.1 µM | [16] 51.5 µM | [17] 29.6 µM

O=C1CC[C@H]2CNC(=O)C[C@H]2C1
inactive: [1] > 100 µM | [3] > 100 µM | [4] > 100 µM | [18] > 100 µM | [5] > 100 µM | [6] > 100 µM | [7] > 100 µM | [8] > 100 µM | [10] > 100 µM | [11] > 100 µM | [19] > 100 µM | [13] > 100 µM | [14] > 100 µM | [15] > 100 µM | [16] > 100 µM | [17] > 100 µM

O=C1c2ccccc2OP(=O)(OCC(F)(F)F)OC1(C(F)(F)F)C(F)(F)F (stereo not given)
inactive: [1] > 100 µM | [2] > 100 µM | [3] > 100 µM | [4] > 100 µM | [5] > 100 µM | [6] > 100 µM | [7] > 100 µM | [8] > 100 µM | [9] > 100 µM | [10] > 100 µM | [11] > 100 µM | [12] > 100 µM | [19] > 100 µM | [13] > 100 µM | [14] > 100 µM | [15] > 100 µM | [16] > 100 µM | [17] 45.3 µM

O=C1NC(=O)C2C(=O)NC(=O)C1C2(c1ccccc1)c1cc[nH]c1 (stereo not given)
inactive: [1] > 100 µM | [2] > 100 µM | [3] > 100 µM | [4] > 100 µM | [18] > 100 µM | [6] > 100 µM | [7] > 100 µM | [8] > 100 µM | [10] > 100 µM | [11] > 100 µM | [12] > 100 µM | [19] > 100 µM | [13] > 100 µM | [14] > 100 µM | [15] > 100 µM | [16] > 100 µM | [17] 74.6 µM

CCOC(=O)NC(N(C)C(C(C)C)P(=O)(OCC)OCC)(C(F)(F)F)C(F)(F)F (stereo not given)
inactive: [1] > 100 µM | [2] > 100 µM | [3] > 100 µM | [4] > 100 µM | [5] > 100 µM | [6] > 100 µM | [7] > 100 µM | [8] > 100 µM | [20] > 100 µM | [10] > 100 µM | [11] > 100 µM | [12] > 100 µM | [19] > 100 µM | [13] > 100 µM | [14] > 100 µM | [15] > 100 µM | [16] > 100 µM | [17] > 100 µM

O=C1CC(Cl)c2c1csc2Br (stereo not given)
inactive: [1] 19 µM | [2] 15.6 µM | [3] 5.61 µM | [4] 2.65 µM | [5] 15.9 µM | [6] 21.4 µM | [7] 21.5 µM | [8] 16.5 µM | [20] 19.3 µM | [10] 3.66 µM | [11] 20.4 µM | [12] 18.2 µM | [19] 19 µM | [13] 3 µM | [14] 17.8 µM | [15] 15.1 µM | [16] 17.5 µM | [17] 8.93 µM

Cc1ccc(/N=C2/SC(c3ccc(C)cc3)(c3ccc(C)cc3)c3ccccc32)cc1
inactive: [1] > 100 µM | [2] > 100 µM | [3] > 100 µM | [4] > 100 µM | [5] > 100 µM | [6] > 100 µM | [7] > 100 µM | [8] > 100 µM | [20] > 100 µM | [10] > 100 µM | [11] > 100 µM | [12] > 100 µM | [19] > 100 µM | [13] > 100 µM | [14] > 100 µM | [15] > 100 µM | [16] > 100 µM | [17] > 100 µM

COc1ccc(C(C#N)Cc2cc(OC)c(OC)c(OC)c2)cc1 (stereo not given)
inactive: [1] 30.6 µM | [2] 45.8 µM | [3] 29.3 µM | [4] 28.8 µM | [18] 45.7 µM | [5] 39.9 µM | [6] 15 µM | [7] 21.7 µM | [8] 31.9 µM | [10] 28.2 µM | [11] 12.1 µM | [12] 64.7 µM | [19] 16.4 µM | [13] 23.4 µM | [14] 54.8 µM | [16] 54.2 µM | [17] 30.8 µM

O=C(Nc1nc(C23CC4CC(CC(C4)C2)C3)cs1)c1cc2cc(Br)cc(Br)c2oc1=O
inactive: [1] 53 µM | [2] > 100 µM | [3] > 100 µM | [4] 27.7 µM | [5] 59 µM | [6] 65.5 µM | [7] 46 µM | [8] > 100 µM | [20] 87.5 µM | [10] 50.1 µM | [11] 37 µM | [12] > 100 µM | [19] 31 µM | [13] 51.8 µM | [14] > 100 µM | [15] 51.5 µM | [16] 41.8 µM | [17] > 100 µM
